In PubChem BioAssay AID248 (DTP/NCI, 2004):
Several values for one entry are separate records, joined by “and”; a condition that tells them apart may be missing. Equal entries are not always repeated. Inconclusive results and toxic doses are left out.

Tested on: L1210 leukemia ip in BDF1 mice, survival T/C
Assay: NCI In Vivo Anticancer Drug Screen. Data for tumor model L1210 Leukemia (intraperitoneal) in B6D2F1 (BDF1) mice
Settings: endpoint: mean survival time, higher = longer survival
How it was run: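 Ratio derived from survival: compound-dosed mice over vehicle-dosed mice, all bearing a transplantable tumor.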

[1] = dose: 100.0 mg/kg/injection, schedule: Q01DX001 (ip), vehicle: saline
[2] = dose: 200.0 mg/kg/injection, schedule: Q01DX001 (ip), vehicle: saline
[3] = dose: 400.0 mg/kg/injection, schedule: Q01DX001 (ip), vehicle: saline
[4] = dose: 9.5 mg/kg/injection, schedule: Q01DX001 (ip), vehicle: other
[5] = dose: 19.0 mg/kg/injection, schedule: Q01DX001 (ip), vehicle: other
[6] = dose: 100.0 mg/kg/injection, schedule: Q01DX001 (ip), vehicle: carboxymethylcellulose (CMC)
[7] = dose: 200.0 mg/kg/injection, schedule: Q01DX001 (ip), vehicle: carboxymethylcellulose (CMC)
[8] = dose: 400.0 mg/kg/injection, schedule: Q01DX001 (ip), vehicle: carboxymethylcellulose (CMC)
[9] = dose: 100.0 mg/kg/injection, schedule: Q01DX001 (ip), vehicle: Klucel (hydroxypropylcellulose) (HPC)
[10] = dose: 100.0 mg/kg/injection, schedule: Q04DX003 (ip), vehicle: Klucel (hydroxypropylcellulose) (HPC)
[11] = dose: 200.0 mg/kg/injection, schedule: Q01DX001 (ip), vehicle: Klucel (hydroxypropylcellulose) (HPC)
[12] = dose: 200.0 mg/kg/injection, schedule: Q04DX003 (ip), vehicle: Klucel (hydroxypropylcellulose) (HPC)
[13] = dose: 400.0 mg/kg/injection, schedule: Q01DX001 (ip), vehicle: Klucel (hydroxypropylcellulose) (HPC)
[14] = dose: 400.0 mg/kg/injection, schedule: Q04DX003 (ip), vehicle: Klucel (hydroxypropylcellulose) (HPC)
[15] = dose: 75.0 mg/kg/injection, schedule: Q01DX001 (ip), vehicle: saline
[16] = dose: 100.0 mg/kg/injection, schedule: Q01DX009 (ip), vehicle: saline with Tween-80
[17] = dose: 200.0 mg/kg/injection, schedule: Q01DX009 (ip), vehicle: saline with Tween-80
[18] = dose: 25.0 mg/kg/injection, schedule: Q01DX009 (ip), vehicle: Klucel (hydroxypropylcellulose) (HPC)
[19] = dose: 25.0 mg/kg/injection, schedule: Q04DX003 (ip), vehicle: Klucel (hydroxypropylcellulose) (HPC)
[20] = dose: 50.0 mg/kg/injection, schedule: Q01DX009 (ip), vehicle: Klucel (hydroxypropylcellulose) (HPC)
[21] = dose: 50.0 mg/kg/injection, schedule: Q04DX003 (ip), vehicle: Klucel (hydroxypropylcellulose) (HPC)
[22] = dose: 100.0 mg/kg/injection, schedule: Q01DX009 (ip), vehicle: Klucel (hydroxypropylcellulose) (HPC)

O=C(CCN1CC1)Nc1ccc(NC(=O)CCN2CC2)cc1
T/C (dose: 2.0 mg/kg/injection, schedule: Q01DX009 (ip), vehicle: Klucel (hydroxypropylcellulose) (HPC)): 121 % of control
T/C (dose: 3.0 mg/kg/injection, schedule: Q01DX009 (ip), vehicle: Klucel (hydroxypropylcellulose) (HPC)): 156 % of control
T/C (dose: 6.6 mg/kg/injection, schedule: Q01DX009 (ip), vehicle: Klucel (hydroxypropylcellulose) (HPC)): 184 % of control
T/C (dose: 10.0 mg/kg/injection, schedule: Q04DX003 (ip), vehicle: Klucel (hydroxypropylcellulose) (HPC)): 115 % of control
T/C (dose: 20.0 mg/kg/injection, schedule: Q01DX009 (ip), vehicle: Klucel (hydroxypropylcellulose) (HPC)): 97 % of control
T/C (dose: 40.0 mg/kg/injection, schedule: Q04DX003 (ip), vehicle: Klucel (hydroxypropylcellulose) (HPC)): 171 % of control and 181 % of control

Cc1cc(C)c(O)c(CN(Cc2cc(C)cc(C)c2O)C2CCCCC2)c1
T/C [1]: 96 % of control
T/C [2]: 88 % of control
T/C [3]: 88 % of control

N#Cc1ccc(S(=O)(=O)N=C(N)N)cc1
T/C [1]: 100 % of control
T/C [2]: 91 % of control
T/C [3]: 90 % of control

CCOP(=O)(OCC)C1=C(CC)CC1
T/C [4]: 109 % of control
T/C [5]: 111 % of control
T/C (dose: 38.0 mg/kg/injection, schedule: Q01DX001 (ip), vehicle: other): 106 % of control

CCN(c1ccccc1)c1ccc([N+](=O)[O-])cc1[N+](=O)[O-]
T/C [6]: 107 % of control
T/C [7]: 91 % of control
T/C [8]: 100 % of control

CCCCCCCCNC(=O)C1OC(n2cnc3c(N)ncnc32)C2OC(C)(C)OC12 (stereo unspecified)
T/C (dose: 100.0 mg/kg/injection, schedule: Q01DX005 (ip), vehicle: saline with Tween-80): 94 % of control
T/C (dose: 200.0 mg/kg/injection, schedule: Q01DX005 (ip), vehicle: saline with Tween-80): 102 % of control

CCCC(=O)OCC1CO1 (stereo unspecified)
T/C [9]: 100 % of control
T/C [10]: 104 % of control
T/C [11]: 104 % of control
T/C [12]: 98 % of control
T/C [13]: 102 % of control
T/C [14]: 106 % of control

CCCCC(=O)N/N=C\c1ccc(OCc2ccccc2)cc1
T/C [1]: 87 % of control
T/C [2]: 92 % of control
T/C [3]: 87 % of control

C[N+]12C(=O)CC3OCC=C4C[N+]5(C)CCC6(c7ccccc71)C2C3C4CC65O (stereo unspecified)
T/C [4]: 92 % of control
T/C [5]: 101 % of control

CCC1(Cc2ccccc2)C(=O)NC(=S)N(C)C1=O (stereo unspecified)
T/C [15]: 106 % of control

Nc1nc(NCCCc2ccccc2)c(N=Nc2ccccc2)c(=O)[nH]1
T/C (dose: 100.0 mg/kg/injection, schedule: Q01DX001 (ip), vehicle: saline with Tween-80): 106 % of control
T/C [16]: 98 % of control and 100 % of control
T/C (dose: 100.0 mg/kg/injection, schedule: Q04DX002 (ip), vehicle: saline with Tween-80): 94 % of control
T/C (dose: 200.0 mg/kg/injection, schedule: Q01DX001 (ip), vehicle: saline with Tween-80): 107 % of control
T/C [17]: 93 % of control and 98 % of control
T/C (dose: 200.0 mg/kg/injection, schedule: Q04DX002 (ip), vehicle: saline with Tween-80): 93 % of control and 89 % of control
T/C (dose: 200.0 mg/kg/injection, schedule: Q04DX003 (ip), vehicle: saline with Tween-80): 86 % of control
T/C (dose: 400.0 mg/kg/injection, schedule: Q01DX001 (ip), vehicle: saline with Tween-80): 104 % of control
T/C (dose: 400.0 mg/kg/injection, schedule: Q04DX002 (ip), vehicle: saline with Tween-80): 94 % of control and 89 % of control
T/C (dose: 400.0 mg/kg/injection, schedule: Q04DX003 (ip), vehicle: saline with Tween-80): 86 % of control

S=c1[nH]c2ccc(Cl)cc2s1
T/C [18]: 101 % of control
T/C [19]: 115 % of control
T/C [20]: 97 % of control
T/C [21]: 106 % of control
T/C [22]: 97 % of control
T/C [10]: 96 % of control

C[C@@H]1C[C@@]2(C)C(=CC1=O)CC[C@@H]1C2=CC[C@@]2(C)[C@H]1CC[C@]2(C)O
T/C (dose: 100.0 mg/kg/injection, schedule: Q01DX009 (ip), vehicle: saline): 100 % of control
T/C (dose: 100.0 mg/kg/injection, schedule: Q04DX003 (ip), vehicle: alcohol): 103 % of control
T/C (dose: 200.0 mg/kg/injection, schedule: Q01DX009 (ip), vehicle: saline): 100 % of control
T/C (dose: 200.0 mg/kg/injection, schedule: Q04DX003 (ip), vehicle: alcohol): 103 % of control
T/C (dose: 400.0 mg/kg/injection, schedule: Q01DX009 (ip), vehicle: saline): 100 % of control
T/C (dose: 400.0 mg/kg/injection, schedule: Q04DX003 (ip), vehicle: alcohol): 97 % of control

C[n+]1c(/C=C\C=C\N2CCCCC2)sc2ccccc21
T/C (dose: 1.25 mg/kg/injection, schedule: Q04DX002 (ip), vehicle: saline with Tween-80): 97 % of control
T/C (dose: 2.5 mg/kg/injection, schedule: Q04DX002 (ip), vehicle: saline with Tween-80): 108 % of control

COC1OC(COC(C)=O)C(N(C)C(C)=O)C1OC(C)=O (stereo unspecified)
T/C [1]: 96 % of control
T/C [2]: 90 % of control
T/C [3]: 94 % of control

C/C=C1/CN2C3CC1C1(C(=O)OC)C2CC2(c4ccccc4N(C)C32)C1O (stereo unspecified)
T/C [20]: 94 % of control
T/C [9]: 105 % of control
T/C [22]: 98 % of control
T/C [11]: 97 % of control
T/C (dose: 200.0 mg/kg/injection, schedule: Q01DX009 (ip), vehicle: Klucel (hydroxypropylcellulose) (HPC)): 96 % of control
T/C [13]: 93 % of control

O=C(O)C(Cl)C(Cl)c1ccccc1 (stereo unspecified)
T/C [15]: 98 % of control
T/C (dose: 150.0 mg/kg/injection, schedule: Q01DX001 (ip), vehicle: saline): 98 % of control
T/C (dose: 300.0 mg/kg/injection, schedule: Q01DX001 (ip), vehicle: saline): 101 % of control

COc1ccc(OC(=O)OCc2ccccc2)cc1
T/C [10]: 101 % of control
T/C [12]: 101 % of control
T/C [14]: 109 % of control

CC1(C)CCC(C)(C)c2cc(Br)ccc21
T/C [6]: 103 % of control
T/C [7]: 95 % of control
T/C [8]: 95 % of control

CC(=O)Oc1c(OC(C)=O)c(C=O)c2c(OC(C)=O)c(-c3c(C)cc4c(C(C)C)c(OC(C)=O)c(OC(C)=O)c(C=O)c4c3OC(C)=O)c(C)cc2c1C(C)C
T/C (dose: 6.25 mg/kg/injection, schedule: Q01DX009 (ip), vehicle: Klucel (hydroxypropylcellulose) (HPC)): 102 % of control
T/C (dose: 12.5 mg/kg/injection, schedule: Q01DX009 (ip), vehicle: Klucel (hydroxypropylcellulose) (HPC)): 97 % of control
T/C [18]: 100 % of control and 105 % of control
T/C [19]: 93 % of control
T/C [21]: 90 % of control
T/C [10]: 95 % of control and 104 % of control

Cc1cnc(SCc2ccc(Cl)cc2)nc1N(C)C
T/C (dose: 25.0 mg/kg/injection, schedule: Q01DX Z (ip), vehicle: methylcellulose (MC)): 90 % of control
T/C (dose: 50.0 mg/kg/injection, schedule: Q01DX Z (ip), vehicle: methylcellulose (MC)): 100 % of control

O=C(O)c1ccc(CBr)c(CBr)c1
T/C (dose: 6.25 mg/kg/injection, schedule: Q04DX003 (ip), vehicle: saline with Tween-80): 93 % of control
T/C (dose: 12.5 mg/kg/injection, schedule: Q04DX003 (ip), vehicle: saline with Tween-80): 94 % of control

C[n+]1c(/C=C/c2ccc(O)c3ncccc23)[se]c2ccccc21
T/C [6]: 95 % of control
T/C (dose: 100.0 mg/kg/injection, schedule: Q04DX003 (ip), vehicle: saline): 108 % of control
T/C [7]: 100 % of control
T/C (dose: 200.0 mg/kg/injection, schedule: Q04DX003 (ip), vehicle: saline): 110 % of control
T/C [8]: 105 % of control
T/C (dose: 400.0 mg/kg/injection, schedule: Q04DX003 (ip), vehicle: saline): 105 % of control

CCCOC1=C2CCCCC2CC1 (stereo unspecified)
T/C [1]: 113 % of control
T/C [2]: 113 % of control
T/C [3]: 102 % of control

O=c1[nH]n(-c2ccccc2)c(=O)cc1Cl
T/C (dose: 50.0 mg/kg/injection, schedule: Q01DX009 (ip), vehicle: saline with Tween-80): 97 % of control
T/C [16]: 89 % of control
T/C [17]: 86 % of control
